Source: ChEMBL document CHEMBL1156249, “Highly effective binding of viologens by p-sulfonatocalixarenes for the treatment of viologen poisoning” (J Med Chem, 2009)
Activity calls are given as the source filed them. The calls are words filed in the database; no cut-off is given here.

What was measured:
Mus musculus [1] = assay: Reduction of viologen poisoning in Kunming mouse assessed as change in body weight at 100 uL/20g body weight, iv administered 1 hr after viologen challenge for 13 days measured on day 14 (reference value: 14 g); assay type: functional
[2] = Binding affinity to viologen diquat cation assessed as compound-viologen complex stability at pH 7.2 by isothermal calorimetry
Mus musculus [3] = assay: Reduction of viologen poisoning in Kunming mouse assessed as protection from viologen-associated pathological changes in lung at 100 uL/20g body weight, iv administered 1 hr after viologen challenge for 13 days measured on day 14 by hematoxylin and eosin staining-based microscopy; assay type: functional, organism-based
Mus musculus [4] = assay: Reduction of viologen poisoning in Kunming mouse assessed as change in body weight at 100 uL/20g body weight, iv administered immediately after viologen challenge for 13 days measured on day 14 (reference value: 14 g); assay type: functional
Mus musculus [5] = assay: Reduction of viologen poisoning in Kunming mouse assessed as change in body weight at 100 uL/20g body weight, iv for 13 days measured on day 14 (reference value: 14 g); assay type: functional
Mus musculus [6] = assay: Reduction of viologen poisoning in Kunming mouse assessed as change in body weight at 100 uL/20g body weight, iv administered 2 hrs after viologen challenge for 13 days measured on day 14 (reference value: 14 g); assay type: functional
[7] = Binding affinity to viologen diquat cation assessed as compound-viologen complex stability at pH 2 by isothermal calorimetry
[8] = Binding affinity to viologen paraquat cation assessed as decrease in hydroxyl radical production at pH 7.2 by cyclic voltammetry
[9] = Binding affinity to viologen diquat cation assessed as decrease in hydroxyl radical production at pH 7.2 by cyclic voltammetry
[10] = Binding affinity to viologen paraquat cation at pH 7.2 by microcalorimetric titration method
[11] = Binding affinity to viologen paraquat cation at pH 1.5 by microcalorimetric titration method
Mus musculus [12] = assay: Reduction of viologen poisoning in Kunming mouse assessed as viologen-associated mortality rate at 100 uL/20g body weight, iv administered 2 hrs after viologen challenge for 13 days measured on day 14; assay type: functional; parameters: scale not given: the % may be the effect or the level left
[13] = Binding affinity to viologen diquat cation at pH 7.2 by microcalorimetric titration method
Mus musculus [14] = assay: Reduction of viologen poisoning in Kunming mouse assessed as protection from viologen-associated pathological changes in lung at 100 uL/20g body weight, iv administered 2 hrs after viologen challenge for 13 days measured on day 14 by hematoxylin and eosin staining-based microscopy; assay type: functional, organism-based
Mus musculus [15] = assay: Toxicity in Kunming mouse assessed as change in body weight at 100 uL/20g body weight, iv for 13 days measured on day 14 (reference value: 32.8 +/- 3.8 g); assay type: organism-based; conditions: in vivo, 312 h
Mus musculus [16] = assay: Reduction of viologen poisoning in Kunming mouse assessed as protection from viologen-associated pathological changes in lung at 100 uL/20g body weight, iv for 13 days measured on day 14 by hematoxylin and eosin staining-based microscopy; assay type: functional, organism-based
Mus musculus [17] = assay: Reduction of viologen poisoning in Kunming mouse assessed as protection from viologen-associated pathological changes in lung at 100 uL/20g body weight, iv administered 30 mins after viologen challenge for 13 days measured on day 14 by hematoxylin and eosin staining-based microscopy; assay type: functional, organism-based
Mus musculus [18] = assay: Reduction of viologen poisoning in Kunming mouse assessed as protection from viologen-associated pathological changes in liver at 100 uL/20g body weight, iv for 13 days measured on day 14 by hematoxylin and eosin staining-based microscopy; assay type: functional, organism-based
Mus musculus [19] = assay: Reduction of viologen poisoning in Kunming mouse assessed as viologen-associated mortality rate at 100 uL/20g body weight, iv administered 30 mins after viologen challenge for 13 days measured on day 14; assay type: functional; parameters: scale not given: the % may be the effect or the level left
Mus musculus [20] = assay: Reduction of viologen poisoning in Kunming mouse assessed as viologen-associated mortality rate at 100 uL/20g body weight, iv for 13 days measured on day 14; assay type: functional; parameters: scale not given: the % may be the effect or the level left
Mus musculus [21] = assay: Reduction of viologen poisoning in Kunming mouse assessed as viologen-associated mortality rate at 100 uL/20g body weight, iv administered 1 hr after viologen challenge for 13 days measured on day 14; assay type: functional; parameters: scale not given: the % may be the effect or the level left
Mus musculus [22] = assay: Reduction of viologen poisoning in Kunming mouse assessed as viologen-associated mortality rate at 100 uL/20g body weight, iv administered immediately after viologen challenge for 13 days measured on day 14; assay type: functional; parameters: scale not given: the % may be the effect or the level left
[23] = Binding affinity to viologen diquat cation at pH 1.5 by microcalorimetric titration method
[24] = Binding affinity to viologen paraquat cation assessed as compound-viologen complex stability at pH 2 by isothermal calorimetry
Mus musculus [25] = assay: Reduction of viologen poisoning in Kunming mouse assessed as protection from viologen-associated pathological changes in lung at 100 uL/20g body weight, iv administered immediately after viologen challenge for 13 days measured on day 14 by hematoxylin and eosin staining-based microscopy; assay type: functional, organism-based
[26] = Binding affinity to viologen paraquat cation assessed as compound-viologen complex formation by NMR spectroscopy
[27] = Binding affinity to viologen paraquat cation assessed as compound-viologen complex stability at pH 7.2 by isothermal calorimetry
[28] = Binding affinity to viologen diquat cation assessed as compound-viologen complex formation by NMR spectroscopy
Mus musculus [29] = assay: Reduction of viologen poisoning in Kunming mouse assessed as change in body weight at 100 uL/20g body weight, iv administered 30 mins after viologen challenge for 13 days measured on day 14 (reference value: 14 g); assay type: functional

SMILES | Ks [2] | Ks [7] | Activity [8] | Activity [9] | Activity [10] | Activity [11] | Activity [13] | Activity [23] | Ks [24] | Activity [26] | Ks [27] | Activity [28] | also measured
O=S(=O)(O)c1cc2c(O)c(c1)Cc1cc(S(=O)(=O)O)cc(c1O)Cc1cc(S(=O)(=O)O)cc(c1O)Cc1cc(S(=O)(=O)O)cc(c1O)Cc1cc(S(=O)(=O)O)cc(c1O)C2 | 3.23 10^6/M | 1.12 10^5/M | Active | Active | Active | Active | Active | Active | 5.5 10^3/M | Active | 2.51 10^5/M | Active | Activity (Mus musculus [1]): 31 g; Activity (Mus musculus [3]): Active; Activity (Mus musculus [4]): 31 g; Activity (Mus musculus [5]): 30.8 g; Activity (Mus musculus [6]): 31 g; Activity (Mus musculus [12]): 40%; Activity (Mus musculus [14]): Active; Activity (Mus musculus [15]): 33.4 g; Activity (Mus musculus [16]): Active; Activity (Mus musculus [17]): Active; Activity (Mus musculus [18]): Active; Activity (Mus musculus [19]): 40%; Activity (Mus musculus [20]): 20%; Activity (Mus musculus [21]): 0%; Activity (Mus musculus [22]): 40%; Activity (Mus musculus [25]): Active; Activity (Mus musculus [29]): 31 g
O=S(=O)(O)c1cc2c(O)c(c1)Cc1cc(S(=O)(=O)O)cc(c1O)Cc1cc(S(=O)(=O)O)cc(c1O)Cc1cc(S(=O)(=O)O)cc(c1O)C2 | 7.95 10^5/M | 5.4 10^5/M | Active | Active | Active | Active | Active | Active | 3.09 10^4/M | Active | 9.33 10^4/M | Active | –
O=S(=O)(O)c1cc2c(O)c(c1)Sc1cc(S(=O)(=O)O)cc(c1O)Sc1cc(S(=O)(=O)O)cc(c1O)Sc1cc(S(=O)(=O)O)cc(c1O)S2 | 4.57 10^4/M | 2.39 10^4/M | Active | Active | – | – | – | – | 2.22 10^3/M | – | 8.68 10^3/M | – | –
